Assay results reported in ChEMBL document CHEMBL1201862, “PubChem BioAssay data set” (2004).
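Compound exposure: 48 hours, 5 concentrations, 96-well plates. GI50 is the concentration that inhibits growth by half.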 Activity calls are given as the source filed them. Cut-off read from the data, not from the text of the source: active = GI50 up to about 1.1 µM and inactive = higher.

Key:
Test in all cases: NCI tumour cell line growth inhibition, 48 h
A549 = tested on: A549
ACHN = tested on: ACHN
CAKI-1 = tested on: CAKI-1
DMS-114 = tested on: DMS-114
HOP-92 = tested on: HOP-92
K562 = tested on: K562
KM-20L2 = tested on: KM-20L2
LXFL 529 = tested on: LXFL 529
OVCAR-4 = tested on: OVCAR-4
OVCAR-5 = tested on: OVCAR-5
SK-MEL-2 = tested on: SK-MEL-2
SNB-78 = tested on: SNB-78
SR = tested on: SR
DLD-1 = tested on: DLD-1
HOP-18 = tested on: HOP-18
NCI/ADR-RES = tested on: NCI/ADR-RES
MDA-MB-231 = tested on: MDA-MB-231
MDA-MB-435 = tested on: MDA-MB-435
PC-3 = tested on: PC-3
T47D = tested on: T47D

| SMILES | GI50 (A549) | GI50 (ACHN) | GI50 (CAKI-1) | GI50 (DMS-114) | GI50 (HOP-92) | GI50 (K562) | GI50 (KM-20L2) | GI50 (LXFL 529) | GI50 (OVCAR-4) | GI50 (OVCAR-5) | GI50 (SK-MEL-2) | GI50 (SNB-78) | GI50 (SR) | GI50 (DLD-1) | GI50 (HOP-18) | GI50 (NCI/ADR-RES) | GI50 (MDA-MB-231) | GI50 (MDA-MB-435) | GI50 (PC-3) | GI50 (T47D) |
| --- | --- | --- | --- | --- | --- | --- | --- | --- | --- | --- | --- | --- | --- | --- | --- | --- | --- | --- | --- | --- |
| COc1cc(C2C(C(=O)NCc3ccccc3)=C(C)NC(C)=C2C(=O)NCc2ccccc2)ccc1O | 77.4 µM (inactive) | 42.5 µM (inactive) | 24.9 µM (inactive) | 39.4 µM (inactive) | 31.4 µM (inactive) | 30.8 µM (inactive) | 33.2 µM (inactive) | 28.6 µM (inactive) | 40.1 µM (inactive) | 57.5 µM (inactive) | 22.3 µM (inactive) | 32.8 µM (inactive) | 20.2 µM (inactive) | – | – | – | – | – | – | – |
| CN(C)/N=C(/c1nc2ccc(Cl)cc2nc1O)C(O)c1ccc(C(O)/C(=N\N(C)C)c2nc3ccc(Cl)cc3nc2O)cc1 (centres undefined) | > 100 µM (inactive) | > 100 µM (inactive) | > 100 µM (inactive) | 53.7 µM (inactive) | 81.7 µM (inactive) | 60.3 µM (inactive) | 84.9 µM (inactive) | – | > 100 µM (inactive) | > 100 µM (inactive) | > 100 µM (inactive) | – | 38 µM (inactive) | > 100 µM (inactive) | – | – | – | – | – | – |
| C(=C/c1nc2ccccc2o1)/c1ccc2c(c1)OCO2 | 18.7 µM (inactive) | – | 9.82 µM (inactive) | 16.9 µM (inactive) | 13.2 µM (inactive) | 5.22 µM (inactive) | 6.61 µM (inactive) | – | 13.1 µM (inactive) | > 36.6 µM (inactive) | 8.34 µM (inactive) | 25.7 µM (inactive) | – | 5.74 µM (inactive) | 5.21 µM (inactive) | 14.1 µM (inactive) | – | – | – | – |
| O=C1NC2(CCCCC2)C2CCCCC(O)C12 (centres undefined) | > 100 µM (inactive) | > 100 µM (inactive) | > 100 µM (inactive) | > 100 µM (inactive) | – | > 100 µM (inactive) | > 100 µM (inactive) | > 100 µM (inactive) | – | > 100 µM (inactive) | > 100 µM (inactive) | > 100 µM (inactive) | > 100 µM (inactive) | > 100 µM (inactive) | – | – | – | – | – | – |
| CCCCCCCC(=O)OCC1OC(n2cc(F)c(=O)[nH]c2=O)C(NC(=O)OCc2ccccc2)C(OC(=O)CCCCCCC)C1O (centres undefined) | 25.1 µM (inactive) | 39.2 µM (inactive) | 19.2 µM (inactive) | 24 µM (inactive) | 23.2 µM (inactive) | 15.6 µM (inactive) | 34.7 µM (inactive) | 21.3 µM (inactive) | 10.5 µM (inactive) | – | 21.6 µM (inactive) | 41.9 µM (inactive) | 16.7 µM (inactive) | – | – | – | – | – | – | – |
| CC(C)C(=O)/C=C/c1ccc(Br)cc1 | 23.8 µM (inactive) | 12.7 µM (inactive) | – | 15.2 µM (inactive) | 16.4 µM (inactive) | 3.94 µM (inactive) | 9.86 µM (inactive) | 16.1 µM (inactive) | 25.4 µM (inactive) | 14.4 µM (inactive) | 16.1 µM (inactive) | 27 µM (inactive) | 7.28 µM (inactive) | 7.31 µM (inactive) | – | – | – | – | – | – |
| COc1ccc(OCC(C)(C)O)cc1 | > 100 µM (inactive) | – | > 100 µM (inactive) | > 100 µM (inactive) | > 100 µM (inactive) | > 100 µM (inactive) | > 100 µM (inactive) | – | > 62.8 µM (inactive) | > 100 µM (inactive) | > 100 µM (inactive) | > 100 µM (inactive) | – | > 100 µM (inactive) | > 100 µM (inactive) | > 100 µM (inactive) | – | – | – | – |
| CC(=O)/C=C1\CC(=O)N(C)c2ccccc2N1 | > 100 µM (inactive) | – | > 100 µM (inactive) | 29.3 µM (inactive) | > 100 µM (inactive) | > 100 µM (inactive) | – | > 100 µM (inactive) | > 100 µM (inactive) | > 100 µM (inactive) | > 100 µM (inactive) | > 100 µM (inactive) | > 100 µM (inactive) | 2.86 µM (inactive) | – | – | – | – | – | – |
| C=C1C(=O)O[C@@H]2C[C@@]3(C)[C@H](O)CCC(=C)[C@@H]3C[C@H]12 [ASPERILIN] | 21.5 µM (inactive) | 14.4 µM (inactive) | 5.58 µM (inactive) | 14.4 µM (inactive) | 5.13 µM (inactive) | 2.39 µM (inactive) | 7.53 µM (inactive) | 2.75 µM (inactive) | 11.8 µM (inactive) | 6.12 µM (inactive) | 11.6 µM (inactive) | 6.04 µM (inactive) | 3.14 µM (inactive) | 3.69 µM (inactive) | – | – | – | – | – | – |
| CCC1=CCN(c2ccc(C)cc2)OC1c1ccc(OC)cc1 (centres undefined) | 71.8 µM (inactive) | > 100 µM (inactive) | 94.8 µM (inactive) | > 100 µM (inactive) | – | 94.8 µM (inactive) | 66.5 µM (inactive) | 62.4 µM (inactive) | 92.7 µM (inactive) | > 100 µM (inactive) | 32.3 µM (inactive) | > 100 µM (inactive) | 47.4 µM (inactive) | 58.1 µM (inactive) | – | – | – | – | – | – |
| CSc1nc2nc(C)c(C)nc2c(=O)[nH]1 | > 100 µM (inactive) | > 100 µM (inactive) | > 100 µM (inactive) | > 100 µM (inactive) | > 100 µM (inactive) | > 100 µM (inactive) | > 100 µM (inactive) | > 100 µM (inactive) | > 100 µM (inactive) | > 100 µM (inactive) | > 100 µM (inactive) | – | > 100 µM (inactive) | > 100 µM (inactive) | > 100 µM (inactive) | – | – | – | – | – |
| CC(=O)OC1/C=C(\C)C(OC(C)=O)C/C=C(/C)CCC2C(/C=C/C1=O)C2(C)C (centres undefined) | > 100 µM (inactive) | > 100 µM (inactive) | – | – | 42.2 µM (inactive) | – | > 100 µM (inactive) | > 100 µM (inactive) | > 100 µM (inactive) | > 100 µM (inactive) | > 100 µM (inactive) | > 100 µM (inactive) | – | > 100 µM (inactive) | > 100 µM (inactive) | – | – | – | – | – |
| O=C1N(C2CCCCC2)CC12CCCCC2 | > 100 µM (inactive) | > 100 µM (inactive) | – | > 100 µM (inactive) | > 100 µM (inactive) | > 100 µM (inactive) | > 100 µM (inactive) | – | > 100 µM (inactive) | – | > 100 µM (inactive) | > 100 µM (inactive) | – | – | 94.6 µM (inactive) | – | – | – | – | – |
| C#CCN1C(=O)CN2C(Cl)(Cl)C2(c2ccccc2)c2cc(Cl)ccc21 (centres undefined) | – | 85.9 µM (inactive) | 30.1 µM (inactive) | 51.5 µM (inactive) | 61.8 µM (inactive) | 49.8 µM (inactive) | 33.3 µM (inactive) | > 100 µM (inactive) | 72.1 µM (inactive) | > 100 µM (inactive) | 94.4 µM (inactive) | – | 40.3 µM (inactive) | 45.3 µM (inactive) | > 100 µM (inactive) | – | – | – | – | – |
| COc1cc(C)cc(OC)c1/C=C/C(=O)O | > 100 µM (inactive) | > 100 µM (inactive) | > 100 µM (inactive) | – | > 100 µM (inactive) | > 100 µM (inactive) | – | – | > 100 µM (inactive) | > 100 µM (inactive) | > 100 µM (inactive) | – | > 100 µM (inactive) | – | – | > 100 µM (inactive) | > 100 µM (inactive) | > 100 µM (inactive) | > 100 µM (inactive) | > 100 µM (inactive) |
| C=C1CC(C)(COc2ccc3c(C)c(C)c(=O)oc3c2C)OC1=O (centres undefined) | 7.67 µM (inactive) | 2.33 µM (inactive) | 1.7 µM (inactive) | – | 1.26 µM (inactive) | 0.811 µM (active) | – | – | 4.3 µM (inactive) | 6.27 µM (inactive) | 2.01 µM (inactive) | – | 0.995 µM (active) | – | – | 2.46 µM (inactive) | 2.52 µM (inactive) | 2.7 µM (inactive) | 2.27 µM (inactive) | 1.28 µM (inactive) |
| CCOC(=O)c1csc(NC(=O)CCN2CCCCC2)n1 | > 100 µM (inactive) | > 100 µM (inactive) | > 100 µM (inactive) | – | > 100 µM (inactive) | > 100 µM (inactive) | – | – | > 100 µM (inactive) | > 100 µM (inactive) | > 100 µM (inactive) | – | > 100 µM (inactive) | – | – | > 100 µM (inactive) | > 100 µM (inactive) | > 100 µM (inactive) | > 100 µM (inactive) | > 100 µM (inactive) |
| Cc1ccc(N2Cc3c(ccc4ccccc34)OP2(=O)Oc2ccc(Cl)c(C)c2)cc1 (centres undefined) | > 94.6 µM (inactive) | – | > 100 µM (inactive) | > 67.1 µM (inactive) | 50 µM (inactive) | > 100 µM (inactive) | > 100 µM (inactive) | – | > 100 µM (inactive) | > 100 µM (inactive) | > 100 µM (inactive) | > 100 µM (inactive) | – | > 41.8 µM (inactive) | > 61.1 µM (inactive) | > 78.7 µM (inactive) | – | – | – | – |
| CCOC(=O)CC[C@H](NC(=O)c1nc[nH]c1/N=N/N(C)C)C(=O)OCC | > 100 µM (inactive) | > 100 µM (inactive) | > 100 µM (inactive) | > 100 µM (inactive) | – | > 100 µM (inactive) | – | > 100 µM (inactive) | > 100 µM (inactive) | – | > 100 µM (inactive) | – | – | > 100 µM (inactive) | – | – | – | – | – | – |
| O=C1CCC2COc3ccc(O)c1c32 (centres undefined) | > 100 µM (inactive) | > 100 µM (inactive) | > 100 µM (inactive) | > 100 µM (inactive) | 79.3 µM (inactive) | > 100 µM (inactive) | > 100 µM (inactive) | > 100 µM (inactive) | > 100 µM (inactive) | – | – | > 100 µM (inactive) | – | – | > 100 µM (inactive) | – | – | – | – | – |
| Oc1cc(O)c2c(c1)O[C@H](c1ccc(O)c(O)c1)[C@@H](O)C2 [CIANIDANOL] | > 100 µM (inactive) | > 100 µM (inactive) | > 100 µM (inactive) | – | > 100 µM (inactive) | > 100 µM (inactive) | – | – | > 100 µM (inactive) | > 100 µM (inactive) | > 100 µM (inactive) | – | > 100 µM (inactive) | – | – | > 100 µM (inactive) | > 100 µM (inactive) | > 100 µM (inactive) | > 100 µM (inactive) | > 100 µM (inactive) |
